Test results reported in ChEMBL document CHEMBL1132880, “Novel arylpiperazines as selective alpha1-adrenergic receptor antagonists” (Bioorg Med Chem Lett, 2000).
pKi: −log10 of the molar value.

Columns and labels:
[1] = target: T1, Alpha-1D adrenergic receptor (Homo sapiens, UniProt P25100); test: Binding affinity for human Alpha-1D adrenergic receptor expressed in COS cell membranes
T1 sequence (P25100 whole entry): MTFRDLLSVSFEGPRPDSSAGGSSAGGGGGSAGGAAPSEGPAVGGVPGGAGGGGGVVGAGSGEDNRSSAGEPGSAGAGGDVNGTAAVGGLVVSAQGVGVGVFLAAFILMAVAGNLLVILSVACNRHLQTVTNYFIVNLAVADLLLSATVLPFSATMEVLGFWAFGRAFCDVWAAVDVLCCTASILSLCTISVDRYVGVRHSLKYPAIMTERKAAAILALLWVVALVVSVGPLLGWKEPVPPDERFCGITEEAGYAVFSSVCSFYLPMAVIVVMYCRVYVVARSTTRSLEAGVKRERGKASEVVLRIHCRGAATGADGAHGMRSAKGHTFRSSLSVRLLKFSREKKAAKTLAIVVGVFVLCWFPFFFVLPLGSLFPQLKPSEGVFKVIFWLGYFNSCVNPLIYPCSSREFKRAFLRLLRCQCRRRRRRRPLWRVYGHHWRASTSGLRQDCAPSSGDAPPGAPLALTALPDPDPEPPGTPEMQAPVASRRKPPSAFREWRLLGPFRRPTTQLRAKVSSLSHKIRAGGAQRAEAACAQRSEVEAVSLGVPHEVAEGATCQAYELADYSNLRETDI

[2] = target: T2, Alpha-1B adrenergic receptor (Homo sapiens, UniProt P35368); test: Binding affinity for human Alpha-1B adrenergic receptor expressed in COS cell membranes
T2 sequence (P35368 whole entry): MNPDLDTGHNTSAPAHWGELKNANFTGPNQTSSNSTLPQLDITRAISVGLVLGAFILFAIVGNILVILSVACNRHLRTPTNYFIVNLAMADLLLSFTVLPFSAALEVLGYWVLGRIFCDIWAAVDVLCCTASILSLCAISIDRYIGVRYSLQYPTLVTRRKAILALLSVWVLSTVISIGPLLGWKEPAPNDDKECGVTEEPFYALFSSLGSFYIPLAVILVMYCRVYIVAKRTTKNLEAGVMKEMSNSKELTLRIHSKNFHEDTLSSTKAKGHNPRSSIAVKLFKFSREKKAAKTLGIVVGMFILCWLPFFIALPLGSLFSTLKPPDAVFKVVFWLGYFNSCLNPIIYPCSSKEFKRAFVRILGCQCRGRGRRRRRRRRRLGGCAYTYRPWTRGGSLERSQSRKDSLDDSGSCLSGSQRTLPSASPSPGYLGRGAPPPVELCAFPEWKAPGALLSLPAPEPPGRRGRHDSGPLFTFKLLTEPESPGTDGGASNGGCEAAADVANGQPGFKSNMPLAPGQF

[3] = target: T3, Alpha-1A adrenergic receptor (Homo sapiens, UniProt P35348); test: Binding affinity for human Alpha-1A adrenergic receptor expressed in COS cell membranes
T3 sequence (P35348 whole entry): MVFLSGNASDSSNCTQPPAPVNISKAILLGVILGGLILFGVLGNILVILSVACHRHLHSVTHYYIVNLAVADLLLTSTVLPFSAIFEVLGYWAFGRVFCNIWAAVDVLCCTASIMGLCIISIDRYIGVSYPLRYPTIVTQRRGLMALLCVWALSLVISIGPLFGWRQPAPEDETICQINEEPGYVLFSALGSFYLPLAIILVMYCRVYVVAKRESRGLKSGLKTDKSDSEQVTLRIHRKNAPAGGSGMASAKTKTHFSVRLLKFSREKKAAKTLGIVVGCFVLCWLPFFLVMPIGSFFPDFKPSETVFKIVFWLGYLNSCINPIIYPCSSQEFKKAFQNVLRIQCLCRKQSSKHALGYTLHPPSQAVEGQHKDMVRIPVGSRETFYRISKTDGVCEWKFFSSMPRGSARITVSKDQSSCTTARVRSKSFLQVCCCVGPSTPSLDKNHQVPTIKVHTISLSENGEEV

[4] = target: Adrenergic receptors; alpha-1 A & B (Homo sapiens) (UniProt P35348+P35368); test: Relative binding affinity for human adrenergic receptor alpha 1b and alpha 1a; assay type: protein assay
[5] = target: Alpha adrenergic receptor (1a and 1d) (Homo sapiens) (UniProt P35348+P25100); test: Relative binding affinity for human adrenergic receptor alpha 1d and 1a; assay type: protein assay
Rattus norvegicus = organism: Rattus norvegicus; test: pA2 data of Compound was evaluated for tissue contractions in isolated rat prostatic tissue strips.; assay type: functional; settings: read-out: pA2 (converted)

| pKi [1] | pKi [2] | pKi [3] | Ratio [4] | Ratio [5] | SMILES | Kb (Rattus norvegicus) |
| --- | --- | --- | --- | --- | --- | --- |
| 6.19 | 5.00 | 7.28 | 187 | 12 | CC(C)Oc1ccccc1N1CCN(CCN(C)C(=O)CN2CCCCC2=O)CC1 |  |
| 5.35 | 5.00 | 7.08 | 120 | 54 | CC(C)Oc1cc(F)ccc1N1CCN(CCNC(=O)CN2CCCCC2=O)CC1 |  |
| 5.22 | 5.00 | 6.38 | 24 | 14 | CC(C)Oc1ccccc1N1CCN(CC(=O)CC(=O)CN2CCCCC2=O)CC1 |  |
| 6.97 | 5.65 | 7.42 | 59 | 3 | CC(C)Oc1ccccc1N1CCN(CCOC(=O)CN2CCCCC2=O)CC1 |  |
| 5.27 | 5.00 | 6.89 | 77 | 41 | O=C(CN1CCCCC1=O)NCCN1CCN(c2ccc(F)cc2OCC(F)(F)F)CC1 |  |
| 6.59 | 4.58 | 7.70 | 1320 | 13 | CCOC(=O)C1CCC(=O)N1CC(=O)NCCN1CCN(c2ccccc2OC(C)C)CC1 (stereo not drawn) | 16.2 nM |
| 6.22 | 5.27 | 7.74 | 295 | 33 | CC(C)Oc1ccccc1N1CCN(C/C=C/C(=O)CN2CCCCC2=O)CC1 |  |
| 6.60 | 5.00 | 7.55 | 556 | 9 | CC(C)Oc1ccccc1N1CCN(CC(O)CC(=O)CN2CCCCC2=O)CC1 (stereo not drawn) |  |
| 7.10 | 5.00 | 9.18 | 15200 | 121 | CC(C)Oc1ccccc1N1CCN(CCCNC(=O)CN2CCCCC2=O)CC1 [RWJ-69736] |  |
| 6.43 | 4.34 | 8.06 | 5300 | 43 | CC(C)Oc1ccccc1N1CCN(CCNC(=O)CN2CCCCC2=O)CC1 [RWJ-38063] | 31.6 nM |
| 5.00 | 5.00 | 7.01 | 102 | 102 | COc1ccccc1N1CCN(CCCNC(=O)CN2CCCCC2=O)CC1 |  |
| 6.30 | 5.45 | 7.74 | 196 | 28 | CC(C)Oc1ccccc1N1CCN(CCNC(=O)CN2CCCCCC2=O)CC1 [RWJ-68157] | 204 nM |
